Source: patent publication US20230192705A1, “SHP2 INHIBITORS, COMPOSITIONS AND USES THEREOF” (Betta Pharmaceuticals Co., Ltd, priority 2020, published 2023)

Target: T1, SHP2 (Homo sapiens, UniProt Q06124)
T1 sequence (Q06124 1-593): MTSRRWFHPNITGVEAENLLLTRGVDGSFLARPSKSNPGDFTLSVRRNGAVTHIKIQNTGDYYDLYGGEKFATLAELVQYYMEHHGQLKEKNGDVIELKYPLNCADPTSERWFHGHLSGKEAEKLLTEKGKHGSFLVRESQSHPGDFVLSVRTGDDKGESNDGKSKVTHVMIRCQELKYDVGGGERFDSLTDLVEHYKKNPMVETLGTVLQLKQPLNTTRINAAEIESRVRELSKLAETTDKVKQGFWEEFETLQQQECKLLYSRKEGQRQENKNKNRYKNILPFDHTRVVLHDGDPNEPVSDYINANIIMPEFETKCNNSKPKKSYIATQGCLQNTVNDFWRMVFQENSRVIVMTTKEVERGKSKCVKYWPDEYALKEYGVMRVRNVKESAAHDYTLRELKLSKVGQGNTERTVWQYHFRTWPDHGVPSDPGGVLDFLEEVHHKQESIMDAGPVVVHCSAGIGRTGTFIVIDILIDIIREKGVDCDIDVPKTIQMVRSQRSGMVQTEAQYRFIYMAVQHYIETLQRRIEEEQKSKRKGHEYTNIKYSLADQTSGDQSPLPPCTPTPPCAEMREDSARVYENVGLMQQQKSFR
Assay: SHP2 allosteric inhibitor enzyme activity assay (DiFMUP fluorescence)
Assay type: biochemical
Settings: class symbols
Text: SHP2 is activated by the binding of a bis-tyrosyl-phosphorylated peptide to its Src homologous 2 (SH2) domain. This subsequent activation step leads to the release of the automatic inhibition interface of SHP2, which in turn activates the SHP2 protein tyrosine phosphatase (PTP) and can be used for substrate recognition and reaction catalysis. The catalytic activity of SHP2 was monitored using the alternative DiFMUP in a rapid fluorescence assay format.
Assay procedures are as follows:
(1) Compound Formulation:
The compound of the present invention (10 mM stock solution) was diluted to a suitable multiple with 100% DMSO and assay buffer, and the final test concentration of the compound of the present invention was 1 μM, 0.333 μM, 0.111 μM, 0.0370 μM, 0.0124 μM, 0.00412 μM, 0.00137 μM, 0.00046 μM, 0.00015 μM, 0.00 μM;
(2) Preparation of Enzyme Reaction Working Fluid:
SHP2 enzyme activity was performed using a final reaction volume of 50 μL and the following assay buffer conditions in 96-well black polystyrene plates (flat bottom, low flange, non-bonding surface) (Perki Elmer, Cat #6005270) at room temperature: 60 mM HEPES, 75 mM NaCl, 75 mM KCl, 0.05% BRIJ-35, 1 mM EDTA, 5 mM DTT.
(3) Enzyme Catalytic Reaction and Data Monitoring:
Compounds of the present invention were added to the corresponding 96-well plates, and no compound and enzyme were provided as blank test wells. SHP2 Activating Peptide (IRS1_pY1172 (dPEG8)pY1222) was placed on ice for melting, and 0.5 μM was added per well, then 0.2 ng SHP2 protein samples were added to corresponding well plates, and incubated at room temperature for 1 hour. Substrate DiFMUP (Invitrogen, Cat #D6567) was added to the reaction at room temperature for 1 hour. Fluorescence signals were monitored using an enzyme reader (Envision, Perki Elmer) using excitation wavelengths and emission wavelengths of 340 nm and 450 nm, respectively.
Inhibition %=[1−(Conversion_sample−Conversion_min)/(Conversion_max−Conversion_min)]*100% Calculation formula: […]
where: Conversion_sample is the mean reading of the sample wells; Conversion_min is the mean reading of blank control wells, representing the reading of the wells without enzyme; Conversion_max is the mean of positive control wells, representing the reading of the wells without inhibitor.
The dose-response curve is fitted with GraphPad Prism software and IC50 was calculated by the “log[inhibitor] vs. response-variable slope” program.

Row | IC50 | Compound
1 | 0.02 to 0.06 µM | N[C@@H]1c2ccccc2CC12CCN(c1nc3[nH]nc(C4(c5ccnc(N6CCOCC6)c5Cl)CC4)c3c(=O)[nH]1)CC2 [Example 65, (S)-6-(1-amino-1,3-dihydrospiro[indene-2,4′-piperidin]-1′-yl)-3-(1-(3-chloro-2-morpholinopyridin-4-yl)cyclopropyl)-1,5-dihydro-4H-pyrazolo[3,4-d]pyrimidin-4-one]
2 | > 0.06 µM | C[C@@H]1OCC2(CCN(c3ncc(C4(c5ccccc5)CC4)c(=O)n3C)CC2)[C@@H]1N [Example 263, 2-((3S,4S)-4-amino-3-methyl-2-oxa-8-azaspiro[4.5]decan-8-yl)-3-methyl-5-(1-phenylcyclopropyl)pyrimidin-4(3H)-one]
3 | 0.02 to 0.06 µM | N[C@@H]1c2ccccc2CC12CCN(c1nc3[nH]nc([C@H]4C[C@H]4c4ccccc4)c3c3nncn13)CC2 [Example 107, (S)-1′-(9-((1S,2R)-2-phenylcyclopropyl)-7H-pyrazolo[4,3-e][1,2,4]triazolo[4,3-c]pyrimidin-5-yl)-1,3-dihydrospiro[indene-2,4′-piperidin]-1-amine]
4 | 0.02 to 0.06 µM | N[C@@H]1Cc2ccccc2C12CCN(c1nc3[nH]nc(C4(c5ccccc5)CC4)c3c(=O)[nH]1)CC2 [Example 198, (R)-6-(2-amino-2,3-dihydrospiro[indene-1,4′-piperidin]-1′-yl)-3-(1-phenylcyclopropyl)-1,5-dihydro-4H-pyrazolo[3,4-d]pyrimidin-4-one]
5 | ≤ 0.02 µM | N[C@@H]1c2ccccc2CC12CCN(c1nc3[nH]nc(C4(c5ccc6ncccc6c5)CC4)c3c(=O)[nH]1)CC2 [Example 14, (S)-6-(1-amino-1,3-dihydrospiro[indene-2,4′-piperidin]-1′-yl)-3-(1-(quinolin-6-yl)cyclopropyl)-1,5-dihydro-4H-pyrazolo[3,4-d]pyrimidin-4-one]
6 | 0.02 to 0.06 µM | COc1ccccc1C1(c2n[nH]c3nc(N4CCC5(CC4)Cc4ccccc4[C@H]5N)[nH]c(=O)c23)CC12CCCC2 (stereo partly drawn) [Example 101, 6-((S)-1-amino-1,3-dihydrospiro[indene-2,4′-piperidin]-1′-yl)-3-(1-(2-methoxyphenyl)spiro[2.4]heptan-1-yl)-1,5-dihydro-4H-pyrazolo[3,4-d]pyrimidin-4-one]
7 | ≤ 0.02 µM | NC1c2ccccc2CC12CCN(c1nc3[nH]nc(C4=CCCn5ccnc54)c3c(=O)[nH]1)CC2 (centres unmarked) [Example 128]
8 | ≤ 0.02 µM | COc1nccc(C2(c3n[nH]c4nc(N5CCC6(CC5)Cc5ccccc5[C@H]6N)[nH]c(=O)c34)CC2)c1Cl [Example 62, (S)-6-(1-amino-1,3-dihydrospiro[indene-2,4′-piperidin]-1′-yl)-3-(1-(3-chloro-2-methoxypyridin-4-yl)cyclopropyl)-1,5-dihydro-4H-pyrazolo[3,4-d]pyrimidin-4-one]
9 | ≤ 0.02 µM | N#Cc1nnc(C2(c3n[nH]c4nc(N5CCC6(CC5)Cc5ccccc5[C@H]6N)[nH]c(=O)c34)CC2)s1 [Example 238, (S)-5-(1-(6-(1-amino-1,3-dihydrospiro[indene-2,4′-piperidin]-1′-yl)-4-oxo-4,5-dihydro-1H-pyrazolo[3,4-d]pyrimidin-3-yl)cyclopropyl)-1,3,4-thiadiazole-2-carbonitrile]
10 | ≤ 0.02 µM | N[C@@H]1c2ccccc2CC12CCN(c1nc3[nH]nc(C4=CCOc5cc(Cl)ccc54)c3c(=O)[nH]1)CC2 [Example 167, (S)-6-(1-amino-1,3-dihydrospiro[indene-2,4′-piperidin]-1′-yl)-3-(7-chloro-2H-chromen-4-yl)-1,5-dihydro-4H-pyrazolo[3,4-d]pyrimidin-4-one]
11 | ≤ 0.02 µM | N[C@@H]1c2cc(F)ccc2CC12CCN(c1nc3[nH]nc(C4(c5ccccc5)CC4)c3c(=O)[nH]1)CC2 [Example 195, (S)-6-(1-amino-6-fluoro-1,3-dihydrospiro[indene-2,4′-piperidin]-1′-yl)-3-(1-phenylcyclopropyl)-1,5-dihydro-4H-pyrazolo[3,4-d]pyrimidin-4-one]
12 | ≤ 0.02 µM | Nc1nccc(C2(c3n[nH]c4nc(N5CCC6(CC5)Cc5ccccc5[C@H]6N)[nH]c(=O)c34)CC2)c1Cl [Example 46, (S)-6-(1-amino-1,3-dihydrospiro[indene-2,4′-piperidin]-1′-yl)-3-(1-(2-amino-3-chloropyridin-4-yl)cyclopropyl)-1,5-dihydro-4H-pyrazolo[3,4-d]pyrimidin-4-one]
13 | 0.02 to 0.06 µM | C[C@@H]1OCC2(CCN(c3nc4[nH]nc(C5(c6nc7ccccc7o6)CC5)c4c(=O)[nH]3)CC2)[C@@H]1N [Example 284, 6-((3S,4S)-4-amino-3-methyl-2-oxa-8-azaspiro[4.5]decan-8-yl)-3-(1-(benzo[d]oxazol-2-yl)cyclopropyl)-1,5-dihydro-4H-pyrazolo[3,4-d]pyrimidin-4-one]
14 | ≤ 0.02 µM | N[C@@H]1c2ccccc2CC12CCN(c1nc3[nH]nc(C4(c5ccc[s+]5[O-])CC4)c3c(=O)[nH]1)CC2 (stereo partly drawn) [Example 242, 6-((S)-1-amino-1,3-dihydrospiro[indene-2,4′-piperidin]-1′-yl)-3-(1-(1-oxidothiophen-2-yl)cyclopropyl)-1,5-dihydro-4H-pyrazolo[3,4-d]pyrimidin-4-one]
15 | ≤ 0.02 µM | N[C@@H]1c2ccccc2CC12CCN(c1nc3[nH]nc(C4(c5cccc6c5CC(=O)N6)CC4)c3c(=O)[nH]1)CC2 [Example 82, (S)-6-(1-amino-1,3-dihydrospiro[indene-2,4′-piperidin]-1′-yl)-3-(1-(2-oxoindolin-4-yl)cyclopropyl)-1,5-dihydro-4H-pyrazolo[3,4-d]pyrimidin-4-one]
16 | ≤ 0.02 µM | CC1(C)C=C(c2n[nH]c3nc(N4CCC5(CC4)Cc4ccccc4[C@H]5N)[nH]c(=O)c23)c2cccnc2C1 [Example 143, (S)-6-(1-amino-1,3-dihydrospiro[indene-2,4′-piperidin]-1′-yl)-3-(7,7-dimethyl-7,8-dihydroquinolin-5-yl)-1,5-dihydro-4H-pyrazolo[3,4-d]pyrimidin-4-one]
17 | ≤ 0.02 µM | N[C@@H]1c2ccccc2CC12CCN(c1nc3[nH]nc(C4(c5ccnc(NC6CCC6)c5Cl)CC4)c3c(=O)[nH]1)CC2 [Example 67, (S)-6-(1-amino-1,3-dihydrospiro[indene-2,4′-piperidin]-1′-yl)-3-(1-(3-chloro-2-(cyclobutylamino)pyridin-4-yl)cyclopropyl)-1,5-dihydro-4H-pyrazolo[3,4-d]pyrimidin-4-one]
18 | 0.02 to 0.06 µM | C[C@@H]1OCC2(CCN(c3nc4[nH]nc(C5(c6cccc(Br)c6)CC5)c4c(=O)[nH]3)CC2)[C@@H]1N [Example 317, 6-((3S,4S)-4-amino-3-methyl-2-oxa-8-azaspiro[4.5]decan-8-yl)-3-(1-(3-bromophenyl)cyclopropyl)-1,5-dihydro-4H-pyrazolo[3,4-d]pyrimidin-4-one]
19 | ≤ 0.02 µM | N[C@@H]1c2ccccc2CC12CCN(c1nc3[nH]nc(C4(c5cnccn5)CC4)c3c(=O)[nH]1)CC2 [Example 51, (S)-6-(1-amino-1,3-dihydrospiro[indene-2,4′-piperidin]-1′-yl)-3-(1-(pyrazin-2-yl)cyclopropyl)-1,5-dihydro-4H-pyrazolo[3,4-d]pyrimidin-4-one]
20 | ≤ 0.02 µM | Cn1cc2c(n1)CCC=C2c1n[nH]c2nc(N3CCC4(CC3)Cc3ccccc3[C@H]4N)[nH]c(=O)c12 [Example 121, (S)-6-(1-amino-1,3-dihydrospiro[indene-2,4′-piperidin]-1′-yl)-3-(2-methyl-6,7-dihydro-2H-indazol-4-yl)-1,5-dihydro-4H-pyrazolo[3,4-d]pyrimidin-4-one]
